Read-outs that look alike come from different tables or passages of the source.
How the values were obtained:
IFITM3 = IFITM3 mRNA in THP-1 cells stimulated with cytokines or TLR agonists, real time PCR; assay type: cell-based, human; details: for IFITM3 mRNA induction: data not shown (Example 3)
[1] = tizoxanide after a 500 mg dose of NTZ; cited from earlier work
HIV LTR [2] = assay type: cell-based; details: for HIV transcriptional activation (LTR-Renilla): NTZ 5 or 10 μM pretreatment
RIG-I = RIG-I gene transcription in HeLa cells; assay type: cell-based, human
HCV = details: added to ribavirin plus pegylated IFN; cited from earlier work
HIV = assay type: cell-based; details: MDM or AM/lymphocyte system; expected
[3] = system: MTb-infected THP-1 cells and human monocytes; details: through inhibition of NQO1; cited from earlier work
H37Rv-mCherry MTb = assay type: cell-based, Mycobacterium tuberculosis; details: concentration-dependent; 0, 5, 10, 15, or 20 μM NTZ pretreatment
PKR [4] = assay: PKR gene transcription in HeLa cells; assay type: cell-based, human
HIV-1Bal/ZsGreen1 = assay type: cell-based; details: pretreatment with 1 μM NTZ
nonreplicating MTb = details: cited from earlier work
influenza = details: in vivo; cited from earlier work
PKR [5] = target: PKR (Homo sapiens, UniProt P19525); details: hepatoma cells; cited from earlier work
PKR (Homo sapiens, UniProt P19525), sequence (P19525 whole entry): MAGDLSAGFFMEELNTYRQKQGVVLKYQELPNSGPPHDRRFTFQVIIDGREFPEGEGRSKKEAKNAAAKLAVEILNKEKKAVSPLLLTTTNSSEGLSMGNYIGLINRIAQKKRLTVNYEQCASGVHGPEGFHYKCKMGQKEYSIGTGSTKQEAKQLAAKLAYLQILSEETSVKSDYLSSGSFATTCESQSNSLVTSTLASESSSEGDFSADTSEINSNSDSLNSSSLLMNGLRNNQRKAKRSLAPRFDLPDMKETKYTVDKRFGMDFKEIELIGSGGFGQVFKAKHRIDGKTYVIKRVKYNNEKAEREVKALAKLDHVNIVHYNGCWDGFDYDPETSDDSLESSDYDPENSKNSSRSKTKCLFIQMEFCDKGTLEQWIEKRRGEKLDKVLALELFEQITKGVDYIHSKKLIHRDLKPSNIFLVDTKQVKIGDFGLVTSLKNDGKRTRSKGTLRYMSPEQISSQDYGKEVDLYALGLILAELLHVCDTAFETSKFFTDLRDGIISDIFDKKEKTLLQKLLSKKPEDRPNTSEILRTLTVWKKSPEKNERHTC

MTb = details: by inhibiting the mTOR pathway; cited from earlier work
live Ebola virus = assay type: cell-based
HIV LTR [6] = assay type: cell-based
X4-tropic HIV = details: human PBMC, with glucocorticoids; cited from earlier work
THP-1 cells = assay: Cellular acidification of THP-1 cells, Lysotracker Red flow cytometry; details: 24 hrs
[7] = system: Zaire ebolavirus GP-pseudotyped lentivirus; assay: organism not typed; assay type: cell-based
[8] = in vivo; cited from earlier work
[9] = in vivo; cited from earlier work; remark: listed apart in the source

In the case of IFN-γ: IFN-γ treatment, the “IFITM3 mRNA induction” value (IFITM3) is reported as “strongly induced”.

In the case of IL-6: recombinant IL-6, the IFITM3 transcript levels (IFITM3; THP-1 cells, by 24 hours post-stimulation) is reported as “significant increase”.

For `O=C(Nc1ncc([N+](=O)[O-])s1)c1ccccc1O` [tizoxanide], the “peak mean plasma concentration” value [1] is given as 26 µM.

For IL-1β: recombinant IL-1β, the “IFITM3 mRNA vs untreated control cells” value (IFITM3; THP-1 cells, by 48 hrs) was “significantly elevated”.

In the case of MCP-1: MCP-1 cytokine treatment, the “IFITM3 mRNA induction” value (IFITM3) is reported as “not induced”.

With `CC(=O)Oc1ccccc1C(=O)Nc1ncc([N+](=O)[O-])s1` [NTZ, [2-[(5-nitro-1,3-thiazol-2-yl)carbamoyl]phenyl] ethanoate] the “activation of the integrated LTR-Renilla reporter gene” value (HIV LTR [2]; MTb infection, not shown) was “significantly inhibits”, the “HIV transcriptional activation (LTR-Renilla)” value (HIV LTR [2]; Sendai virus infection) was “inhibited” and the “HIV transcriptional activation (LTR-Renilla)” value (HIV LTR [2]; stimulation with TLR2 agonist Pam3Cys) was “inhibited”. The “transcription of RIG-I gene” value (RIG-I) was “induce”, the HCV virological response (HCV) was “significantly improve” and the “MTb augmentation of HIV replication” value (HIV) was “suppressed”. The autophagy [3] was “promotes autophagy”, the “MTb infection of THP-1 cells” value (H37Rv-mCherry MTb) was “potently inhibits” and the “transcription of PKR gene” value (PKR [4]) was “induce”. For the same compound, the “HIVBALZsGreen1 infection of MDM” value (HIV-1Bal/ZsGreen1) was “suppresses”, the “reduction of viable, nonreplicating MTb” value (nonreplicating MTb) was “over 2 log units” and the “treatment of uncomplicated influenza” value (influenza) was “efficacy”. The “autophosphorylation of PKR” value (PKR [5]) was “directly induces”, the MTb proliferation (MTb) was “suppress” and the “inhibition of live Ebola virus” value (live Ebola virus) was “inhibit”. For the same compound, the “LTR reactivation (ZsGreen1)” value (HIV LTR [6]; TLR2 agonist Pam3Cys, 10 μM NTZ, 6 hrs) was “reduces”, the “LTR reactivation (ZsGreen1)” value (HIV LTR [6]; direct MTb infection, 6 hours) was “reduces” and the “suppression of X4-tropic HIV replication” value (X4-tropic HIV) was “synergizes”. For the same compound, the intracellular acidity (THP-1 cells) was “increased intracellular acidity”, the “infection by Zaire Ebolavirus GP-pseudotyped lentiviral particles” value [7] was “inhibits” and the inhibition at 8 µM ([7]; THP-1, read-out: inhibition of ZE-LV infection) was about 40%.

For `CC(=O)Oc1ccccc1C(=O)Nc1ncc(Cl)s1` [RM-5038], the “tolerability compared to NTZ” value [8] is listed as “better tolerated” and the “absorption in the GI tract compared to NTZ” value [9] is listed as “better absorbed”.

For Pam3Cys, the IFITM3 gene expression (IFITM3; THP-1 cells, TLR agonist 100 ng/ml, 24 and 48 hours) was “significantly induced”.
